# Test results published in US9908877B2, “Imidazo[1,5-a]pyridinium ion fluorophores, and methods of making and using the same” (Indiana University Research and Technology Corporation, priority 2013, dated 2018).
# Values joined by “and” are separate entries in the source; they are usually repeats but may differ in a detail not shown here. Equal entries are not always repeated.
# How the values were obtained:
# Type in all cases: physicochemical
# [1] = Fluorescence response to trifluoroacetic acid / DBU in acetonitrile
# Procedure: A 30 μM solution of Compound 6 in acetonitrile was prepared by adding 99 μL of a stock solution of 3.04 mM Compound 6 in methanol to 10 mL of acetonitrile. An initial fluorescence emission spectrum of the solution was obtained and is illustrated by curve (i) in FIG. 1A.
# A series of approximately 13.8 μL aliquots of trifluoroacetic acid (TFA) were then added to the 30 μM solution of Compound 6 until a total concentration of 60.0 mM of TFA was present in the solution. (The total amount of TFA present in the solution corresponded to 2000 equivalents of acid per equivalent of Compound 6.) The fluorescence emission spectrum of the resulting solution was obtained and is illustrated by curve (ii) in FIG. 1A.
# A base, i.e., 1,8-diazabicyclo[5.4.0]undec-7-ene (DBU), was then added to the solution to neutralize the acid until a concentration of 90 mM DBU was obtained. The fluorescence emission spectrum of the resulting solution was obtained and is illustrated by curve (iii) in FIG. 1A. The fluorescence emission intensity at λem,max=565 nm increased as the amount of base present in the system increased and the fluorescence emission intensity at λem,max=405 nm decreased as the amount of base present in the system increased, which reflected Compound 6's ratiometric response to the changing base concentration in acetonitrile.
# A 30 μM solution of Compound 7 in acetonitrile was prepared by adding 84 μL of a stock solution of 3.58 mM Compound 7 in methanol to 10 mL of acetonitrile. The emission spectrum of the solution was then obtained and is illustrated by curve (i) in FIG. 1B.
# A series of approximately 13.8 μL aliquots of TFA were then added to the 30 μM solution of Compound 7 until a total concentration of 60.0 mM TFA was present in the solution (which corresponded to 2000 equivalents of acid per equivalent of Compound 7). The fluorescence emission spectrum of the solution was obtained and is illustrated by curve (ii) in FIG. 1B.
# After the 60 mM TFA concentration was achieved, DBU was gradually added to the solution until a total concentration of 90 mM DBU was present in the solution. The fluorescence spectrum of the solution was obtained and is illustrated by curve (iii) in FIG. 1B.
# An aliquot of 50 μL of trifluoroacetic acid was then added to the system, and the fluorescence emission spectrum was obtained and is illustrated by the curved line with a peak at 360 nm in FIG. 6A.
# Compound 10 was placed in neat acetonitrile and its emission spectrum was monitored as trifluoroacetic acid was added to the acetonitrile in incremental amounts to achieve a solution that included an acid concentration ranging from 0 to 0.2 M. After each acid addition the sample was excited with radiation of a wavelength 340 nm, and its fluorescence emission spectrum was monitored. The results are illustrated in FIG. 7A.
# The solution of Compound 10 in acetonitrile was titrated with trifluoroacetic acid (TFA). […] The first stage, which occurred with the addition of the initial aliquots of TFA, was a slight increase intensity at 580 nm, as illustrated in FIG. 7A. As more TFA was added to the system, a second transition occurred in which the emission at 580 nm began to decrease and as the emission at 400 nm began to increase, as illustrated in FIG. 7B. A plot of the emission intensity at 580 nm versus pH and at 400 nm versus pH is illustrated in FIG. 7C.
# Compounds 10, 11, and 12 were then each individually added, at a concentration of 30 μM, to acetonitrile and the emission spectrum of each was monitored. The compounds emitted at 600 nm with an intensity of about 7.57×10^5 arbitrary units (a.u.) in neat acetonitrile. […] FIG. 8B illustrates the emission properties of Compound 12.
# [2] = pKa from fluorescence intensity versus pH; conditions: non-linear regression of fluorescence intensity versus pH, buffered water pH 2.5 to 7.5
# Procedure: Method for Determining pKa
# A pKa value is determined by plotting fluorescence intensity (Imax) at emission maxima against pH and fitting the result to the non-linear expression in equation (1) (i.e., eq.(1)). In eq (1), a and b are the molar coefficient of the acid (HA) and base (A^−) form, respectively, and c is the combined overall concentration of the acid and base form. i.e., c=[HA]+[A^−].
# [3] = Fluorescence emission in a series of organic solvents; conditions: 30 μM, excited at 360 nm
# Procedure: Compound 6 was placed in the series of organic solvents at a concentration of 30 μM, excited with radiation at 360 nm, and monitored for fluorescence emission. The organic solvent, intensity of fluorescence emission (ET), and maximum emission wavelength in nm and cm^−1, are set forth below in Table 2.
# [4] = Fluorescence quantum yield, integrating sphere
# Procedure: Method for Determining Quantum Yield
# Quantum yield is determined using an integrating sphere attached to a QM-4-CW Spectrofluorometer using FeliX32 software (Photon Technology International).
# The compounds were analyzed at 298° K according to the Method for Obtaining Ultraviolet-Visible Light Spectrum (30 μM acetonitrile) to obtain the maximum absorbance wavelength (λabs,max), Method for Obtaining Fluorescence Emission Spectrum (30 μM acetonitrile) to obtain the maximum emission wavelength (λem,max) and Method for Determining Quantum Yield (ΦF) (30 μM acetonitrile) at the concentration, in the solvent, and with the counter ion indicated in Table 1. The compounds included hydrogen at each R group that is not otherwise specified.
# Compounds 6, 7, 9, 11-14 and 21 were analyzed according to: the Method for Obtaining Ultraviolet-Visible Light Spectrum to obtain the maximum absorbance wavelength (λabs,max), the Method for Obtaining Fluorescence Emission Spectrum to obtain the maximum emission wavelength (λem,max), and the Method for Determining Quantum Yield (ΦF) in the solvent and with the counter ion indicated in Table 3.
# [5] = Dimethylsulfoxide (ET(30) 45.1)
compound,measurement,setting,value
"CCN(CC)c1ccc(-c2c3cccc[n+]3cn2-c2ccc(OC)cc2)cc1.[Cl-] [Compound 6, 1-(4-(diethylamino)phenyl)-2-(4-methoxyphenyl)-2H-imidazo[1,5-a]pyridin-4-ium chloride]","λem,max (fluorescence emission)",[1]; 30 μM in acetonitrile in the absence of trifluoroacetic acid,565 nm
same,"λem,max (fluorescence emission)",[1]; 30 μM in acetonitrile in the presence of trifluoroacetic acid (60.0 mM TFA),400 nm and 405 nm
same,pKa,[2],5
same,maximum emission Wavelength,[3]; Acetonitrile (ET(30) 45.6),559 nm
same,maximum emission wavenumber,[3]; Acetonitrile (ET(30) 45.6),17889.09 cm⁻¹
same,maximum emission Wavelength,[3]; Benzene (ET(30) 34.3),567 nm
same,maximum emission wavenumber,[3]; Benzene (ET(30) 34.3),17636.68 cm⁻¹
same,maximum emission Wavelength,[3]; Chloroform (ET(30) 39.1),533 nm
same,maximum emission wavenumber,[3]; Chloroform (ET(30) 39.1),18761.73 cm⁻¹
same,maximum emission Wavelength,[3]; Dichloromethane (ET(30) 40.7),535 nm
same,maximum emission wavenumber,[3]; Dichloromethane (ET(30) 40.7),18691.59 cm⁻¹
same,maximum emission Wavelength,[3]; [5],567 nm
same,maximum emission wavenumber,[3]; [5],17636.68 cm⁻¹
same,maximum emission Wavelength,[3]; Hexane (ET(30) 31),561 nm
same,maximum emission wavenumber,[3]; Hexane (ET(30) 31),17825.31 cm⁻¹
same,maximum emission Wavelength,[3]; Tetrahydrofuran (ET(30) 37.4),541 nm
same,maximum emission wavenumber,[3]; Tetrahydrofuran (ET(30) 37.4),18484.29 cm⁻¹
same,maximum emission Wavelength,[3]; Toluene (ET(30) 33.9),568 nm
same,maximum emission wavenumber,[3]; Toluene (ET(30) 33.9),17605.63 cm⁻¹
same,maximum emission Wavelength,[3]; Water (ET(30) 63.1),576 nm
same,maximum emission wavenumber,[3]; Water (ET(30) 63.1),17361.11 cm⁻¹
same,[…]F (quantum yield),"[4]; H2O (pH not given), 30 μM",16%
same,[…]F (quantum yield),"[4]; H2O pH = 2.5, 30 μM",31%
same,[…]F (quantum yield),"[4]; MeCN + 13.8 uL TFA, 30 μM",49%
same,[…]F (quantum yield),"[4]; MeCN, 30 μM",59%
